Measured values published in patent US20250388553A1 (Incyte Corporation, priority 2018, published 2025).
Counter-ions that a name gives are not always drawn. Like-named read-outs stand apart in the source and are kept apart here.

How the values were obtained:
[1] = tested on: Phosphorylated Ribosomal Protein S6 (RPS6) in THP-1 cells; test: THP-1 RPS6 ELISA assay; type: cell-based, Human; conditions: THP-1 cells, 10 nM MCP-1, phospho-RPS6 ELISA, read-out: PI3Kγ_THP1_RPS6_ELISA IC50
Excerpt: Example A. THP-1 RPS6 ELISA Assay
To measure the Phosphorylated Ribosomal Protein S6 (RPS6) in cell lysates, THP-1 cells (Human Acute Monocytic Leukemia) are purchased from ATCC (Manassas, VA) and maintained in RPMI with 10% FBS (Gibco/Life Technologies, Carlsbad, CA). For the assay, THP-1 cells are serum starved overnight in RPMI, then plated in RPMI (2×10^5 cells/well in […]) into 96-well flat-bottom tissue culture treated plates (Corning, Corning, NY), in the presence or absence of a concentration range of test compounds. Covered plates are incubated for 2 hours at 37° C., 5% CO2 then treated with or without 10 nM MCP-1(MYBioSource, San Diego, CA) for 15 minutes at 37° C., 5% CO2. Plates are centrifuged at 1600 RPM and supernatants are removed. Cells are lysed in Lysis Buffer (Cell Signaling, Danvers, MA) with Protease Inhibitor (Calbiochem/EMD, Germany), PMSF (Sigma, St Louis MO), HALTS (Thermo Fisher, Rockford, IL) for 30 min on wet ice. Cell lysates are frozen at −80° C. before testing. The lysates are tested in the Human/Mouse/Rat Phospho-RPS6 ELISA (R&D Systems, Inc. Minn, MN). The plate is measured using a microplate reader (SpectraMax M5—Molecular Devices, LLC Sunnyvale, CA) set to 450 nm with a wavelength correction of 540. IC50 determination is performed by fitting the curve of inhibitor percent inhibition versus the log of the inhibitor concentration using the GraphPad Prism 5.0 software.
The compounds of the Examples were tested in the assays described in Examples A, B and C and found to have the IC50s are shown in Tables A1, A2, A3 and A4.

[2] = target: PI3Kδ (p1106/p85a) Recombinant Human Protein (Homo sapiens (Human), UniProt O00329); test: PI3Kδ scintillation proximity assay; type: biochemical
[3] = target: PI3Kγ (p110γ) Recombinant Human Protein (Homo sapiens (Human), UniProt P48736); test: PI3K-γ scintillation proximity assay; type: biochemical
[4] = Table A4, scintillation proximity assay, recombinant human PI3Kδ
[5] = Table A1, scintillation proximity assay, recombinant human PI3Kδ
[6] = Table A1, scintillation proximity assay, recombinant human p110γ
[7] = Table A2, scintillation proximity assay, recombinant human PI3Kδ
[8] = Table A2, scintillation proximity assay, recombinant human p110γ
[9] = Table A4, scintillation proximity assay, recombinant human p110γ

PI3Kδ (p1106/p85a) Recombinant Human Protein, sequence (O00329 whole entry): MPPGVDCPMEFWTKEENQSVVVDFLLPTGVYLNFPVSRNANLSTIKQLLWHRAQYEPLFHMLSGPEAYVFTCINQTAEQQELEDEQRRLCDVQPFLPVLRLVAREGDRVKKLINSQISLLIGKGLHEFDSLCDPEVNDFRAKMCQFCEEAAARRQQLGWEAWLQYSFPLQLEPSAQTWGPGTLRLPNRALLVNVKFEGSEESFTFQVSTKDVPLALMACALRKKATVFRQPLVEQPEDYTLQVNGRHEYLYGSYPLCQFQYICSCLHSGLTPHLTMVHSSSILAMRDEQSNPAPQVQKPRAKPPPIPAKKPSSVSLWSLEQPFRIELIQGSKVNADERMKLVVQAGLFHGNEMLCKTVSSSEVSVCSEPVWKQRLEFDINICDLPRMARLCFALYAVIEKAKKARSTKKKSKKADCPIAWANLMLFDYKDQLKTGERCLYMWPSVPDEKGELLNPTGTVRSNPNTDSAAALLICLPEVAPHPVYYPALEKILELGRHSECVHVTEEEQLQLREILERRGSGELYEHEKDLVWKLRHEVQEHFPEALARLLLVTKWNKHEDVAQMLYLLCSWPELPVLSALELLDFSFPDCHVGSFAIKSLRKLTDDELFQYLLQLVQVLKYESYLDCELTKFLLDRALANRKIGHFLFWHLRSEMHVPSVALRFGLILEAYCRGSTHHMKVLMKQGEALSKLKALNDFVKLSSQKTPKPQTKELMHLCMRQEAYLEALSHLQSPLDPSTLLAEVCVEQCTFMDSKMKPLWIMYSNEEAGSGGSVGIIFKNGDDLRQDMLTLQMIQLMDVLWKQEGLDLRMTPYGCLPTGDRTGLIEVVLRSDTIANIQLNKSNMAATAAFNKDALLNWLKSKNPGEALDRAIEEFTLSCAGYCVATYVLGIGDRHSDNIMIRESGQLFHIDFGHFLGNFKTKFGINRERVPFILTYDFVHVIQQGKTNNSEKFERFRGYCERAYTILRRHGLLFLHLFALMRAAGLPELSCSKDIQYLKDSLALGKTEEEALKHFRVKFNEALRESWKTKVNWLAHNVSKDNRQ
PI3Kδ (p1106/p85a) Recombinant Human Protein, sequence (P27986 whole entry partner): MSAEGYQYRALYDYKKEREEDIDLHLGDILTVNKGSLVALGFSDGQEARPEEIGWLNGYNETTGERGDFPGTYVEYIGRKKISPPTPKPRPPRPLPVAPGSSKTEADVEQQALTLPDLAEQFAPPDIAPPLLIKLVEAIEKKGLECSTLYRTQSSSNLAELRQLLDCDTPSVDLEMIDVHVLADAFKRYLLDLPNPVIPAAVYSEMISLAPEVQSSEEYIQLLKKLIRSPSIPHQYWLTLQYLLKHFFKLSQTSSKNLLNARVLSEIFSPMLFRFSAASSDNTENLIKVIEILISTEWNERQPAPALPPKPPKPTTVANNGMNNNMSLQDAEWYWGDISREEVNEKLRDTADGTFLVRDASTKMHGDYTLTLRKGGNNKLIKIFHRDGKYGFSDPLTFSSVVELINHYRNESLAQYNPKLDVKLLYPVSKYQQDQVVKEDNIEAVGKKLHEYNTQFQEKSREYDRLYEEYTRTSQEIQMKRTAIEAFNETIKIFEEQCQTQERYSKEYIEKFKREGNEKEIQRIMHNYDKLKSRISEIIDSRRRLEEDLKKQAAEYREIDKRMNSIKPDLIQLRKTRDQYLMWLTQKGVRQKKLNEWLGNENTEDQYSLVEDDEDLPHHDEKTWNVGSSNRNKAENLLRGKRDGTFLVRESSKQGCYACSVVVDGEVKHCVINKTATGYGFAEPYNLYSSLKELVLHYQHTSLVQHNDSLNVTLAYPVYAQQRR
PI3Kγ (p110γ) Recombinant Human Protein, sequence (P48736 whole entry): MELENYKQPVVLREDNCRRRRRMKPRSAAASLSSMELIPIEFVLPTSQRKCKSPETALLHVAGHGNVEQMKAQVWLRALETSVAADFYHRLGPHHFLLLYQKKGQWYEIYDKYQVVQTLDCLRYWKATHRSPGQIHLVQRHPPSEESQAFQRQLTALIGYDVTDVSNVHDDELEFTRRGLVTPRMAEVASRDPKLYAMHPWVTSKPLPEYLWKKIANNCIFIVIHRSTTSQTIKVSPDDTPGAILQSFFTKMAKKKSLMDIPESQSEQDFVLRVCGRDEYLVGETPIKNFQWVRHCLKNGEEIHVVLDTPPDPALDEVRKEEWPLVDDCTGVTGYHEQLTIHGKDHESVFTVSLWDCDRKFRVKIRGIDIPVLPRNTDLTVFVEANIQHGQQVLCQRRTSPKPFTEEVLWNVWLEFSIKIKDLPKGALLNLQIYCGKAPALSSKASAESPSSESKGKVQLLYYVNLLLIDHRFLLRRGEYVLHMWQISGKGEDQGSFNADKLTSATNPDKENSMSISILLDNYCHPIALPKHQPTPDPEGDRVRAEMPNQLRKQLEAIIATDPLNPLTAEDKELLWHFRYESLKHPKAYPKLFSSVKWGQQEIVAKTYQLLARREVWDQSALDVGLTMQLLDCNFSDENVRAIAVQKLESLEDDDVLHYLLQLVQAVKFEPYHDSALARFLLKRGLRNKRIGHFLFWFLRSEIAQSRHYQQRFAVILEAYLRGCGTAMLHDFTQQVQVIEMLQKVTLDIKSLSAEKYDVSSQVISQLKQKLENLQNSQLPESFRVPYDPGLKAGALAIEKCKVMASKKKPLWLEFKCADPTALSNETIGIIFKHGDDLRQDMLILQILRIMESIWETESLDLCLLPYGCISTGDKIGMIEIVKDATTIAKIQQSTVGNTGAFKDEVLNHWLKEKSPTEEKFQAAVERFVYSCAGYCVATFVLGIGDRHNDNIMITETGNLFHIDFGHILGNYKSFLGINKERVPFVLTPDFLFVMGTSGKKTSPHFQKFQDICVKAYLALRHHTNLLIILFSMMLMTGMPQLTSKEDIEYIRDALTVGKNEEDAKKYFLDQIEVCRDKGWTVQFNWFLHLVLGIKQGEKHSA

SMILES	IC50 [2, 5] [nM]	IC50 ([1]; Table A1) [nM]	IC50 [3, 6] [nM]	other results
Cc1ccc(C(O)(C(N)=O)C(F)(F)F)cc1-c1cnc(N)c(C2CN(S(=O)(=O)c3cnn(C)c3)C2)n1 (single isomer, unassigned) [Example 107, 2-(3-(5-Amino-6-(1-((1-methyl-1H-pyrazol-4-yl)sulfonyl)azetidin-3-yl)pyrazin-2-yl)-4-methylphenyl)-3,3,3-trifluoro-2-hydroxypropanamide, trifluoroacetate Salt]				IC50 ([1]; Homo sapiens, Table A4): 500 to 1000 nM
CCOC(=O)C1CC(c2nc(-c3cc(C(O)(C(N)=O)C(F)(F)F)ccc3C)cnc2N)C1 (single isomer, unassigned) [Example 109, Ethyl 3-(3-amino-6-(5-(3-amino-1,1,1-trifluoro-2-hydroxy-3-oxopropan-2-yl)-2-methylphenyl)pyrazin-2-yl)cyclobutane-1-carboxylate]				IC50 [2, 4]: 100 to 500 nM; IC50 ([1]; Table A4): > 1000 nM
Cc1ccc(C(O)(C(N)=O)C(F)(F)F)cc1-c1cnc(N)c(C(=O)N[C@H]2CC[C@H](O)CC2)n1 (some centres unmarked) [Example 3, 3-amino-6-(5-(3-amino-1,1,1-trifluoro-2-hydroxy-3-oxopropan-2-yl)-2-methylphenyl)-N-((1r,4r)-4-hydroxycyclohexyl)pyrazine-2-carboxamide trifluoroacetate]	< 100	< 100	< 100	
Cc1ccc(C(O)(C(N)=O)C(F)(F)F)cc1-c1cnc(N)c(C(=O)N[C@H]2CC[C@](C)(O)CC2)n1 (some centres unmarked) [Example 17, 3-amino-6-(5-(3-amino-1,1,1-trifluoro-2-hydroxy-3-oxopropan-2-yl)-2-methylphenyl)-N-((1r,4r)-4-hydroxy-4-methylcyclohexyl)pyrazine-2-carboxamide trifluoroacetate]	< 100	< 100	< 100	
Cc1ccc(C(O)(C(N)=O)C(F)(F)F)cc1-c1cnc(N)c(C(=O)N[C@H]2CC[C@@](O)(C(F)(F)F)CC2)n1 (some centres unmarked) [Example 18, 3-amino-6-(5-(3-amino-1,1,1-trifluoro-2-hydroxy-3-oxopropan-2-yl)-2-methylphenyl)-N-((1r,4r)-4-hydroxy-4-(trifluoromethyl)cyclohexyl)pyrazine-2-carboxamide trifluoroacetate]	< 100	< 100	< 100	
Cc1ccc(C(O)(C(N)=O)C(F)(F)F)cc1-c1cnc(N)c(C(=O)N[C@H]2CC[C@H](C(C)(C)O)CC2)n1 (some centres unmarked) [Example 19, 3-amino-6-(5-(3-amino-1,1,1-trifluoro-2-hydroxy-3-oxopropan-2-yl)-2-methylphenyl)-N-((1r,4r)-4-(2-hydroxypropan-2-yl)cyclohexyl)pyrazine-2-carboxamide trifluoroacetate]	< 100	< 100	< 100	
CO[C@H]1CC[C@H](NC(=O)c2nc(-c3cc(C(O)(C(N)=O)C(F)(F)F)ccc3C)cnc2N)CC1 (some centres unmarked) [Example 22, 3-amino-6-(5-(3-amino-1,1,1-trifluoro-2-hydroxy-3-oxopropan-2-yl)-2-methylphenyl)-N-((1r,4r)-4-methoxycyclohexyl)pyrazine-2-carboxamide trifluoroacetate]	< 100	< 100	< 100	
COC[C@H]1CCN1C(=O)c1nc(-c2cc(C(O)(C(N)=O)C(F)(F)F)ccc2C)cnc1N (stereo partly drawn) [Example 26, 2-(3-(5-amino-6-((R)-2-(methoxymethyl)azetidine-1-carbonyl)pyrazin-2-yl)-4-methylphenyl)-3,3,3-trifluoro-2-hydroxypropanamide]	< 100		< 100	IC50 ([1]; Homo sapiens, Table A1): 100 to 500 nM
Cc1ccc(C(O)(C(N)=O)C(F)F)cc1-c1cnc(N)c(C(=O)NC(C)C)n1 (centres unmarked) [Example 31]	< 100	< 100	< 100	
CC(=O)NCC(O)(c1ccc(C)c(-c2cnc(N)c(C(=O)NC(C)C)n2)c1)C(F)(F)F (centres unmarked) [Example 39, 6-(5-(3-Acetamido-1,1,1-trifluoro-2-hydroxypropan-2-yl)-2-methylphenyl)-3-amino-N-isopropylpyrazine-2-carboxamide trifluoroacetate]	< 100		< 100	IC50 ([1]; Homo sapiens, Table A1): 100 to 500 nM
Cc1ccc(C(O)(CNC(=O)CF)C(F)(F)F)cc1-c1cnc(N)c(C(=O)NC(C)C)n1 (centres unmarked) [Example 40, 3-Amino-N-isopropyl-6-(2-methyl-5-(1,1,1-trifluoro-3-(2-fluoroacetamido)-2-hydroxypropan-2-yl)phenyl)pyrazine-2-carboxamide trifluoroacetate]	< 100		< 100	IC50 ([1]; Homo sapiens, Table A1): 100 to 500 nM
Cc1ccc(C(O)(CNC(=O)CC#N)C(F)(F)F)cc1-c1cnc(N)c(C(=O)NC(C)C)n1 (centres unmarked) [Example 42, 3-Amino-6-(5-(3-(2-cyanoacetamido)-1,1,1-trifluoro-2-hydroxypropan-2-yl)-2-methylphenyl)-N-isopropylpyrazine-2-carboxamide trifluoroacetate]	< 100		< 100	IC50 ([1]; Homo sapiens, Table A1): 100 to 500 nM
CCCc1nc(-c2cc(C(O)(C(N)=O)C(F)(F)F)ccc2C)cnc1N (centres unmarked) [Example 45, 2-(3-(5-amino-6-propylpyrazin-2-yl)-4-methylphenyl)-3,3,3-trifluoro-2-hydroxypropanamide]				IC50 [2, 7]: 100 to 500 nM; IC50 ([1]; Homo sapiens, Table A2): 100 to 500 nM; IC50 [3, 8]: < 100 nM
Cc1ccc(C(O)(C(N)=O)C(F)(F)F)cc1-c1cnc(N)c(C#CC(C)C)n1 (centres unmarked) [Example 49, 2-(3-(5-amino-6-(3-methylbut-1-ynyl)pyrazin-2-yl)-4-methylphenyl)-3,3,3-trifluoro-2-hydroxypropanamide]				IC50 [2, 7]: < 100 nM; IC50 ([1]; Homo sapiens, Table A2): 100 to 500 nM; IC50 [3, 8]: < 100 nM
Cc1ncc(-c2nc(-c3cc(C(O)(C(N)=O)C(F)(F)F)ccc3C)cnc2N)s1 (centres unmarked) [Example 72, 2-(3-(5-amino-6-(2-methylthiazol-5-yl)pyrazin-2-yl)-4-methylphenyl)-3,3,3-trifluoro-2-hydroxypropanamide trifluoroacetate]				IC50 ([1]; Homo sapiens, Table A3): < 100 nM
Cc1ccc(C(O)(C(N)=O)C(F)(F)F)cc1-c1cnc(N)c(N2CCN(c3cccc(C(F)(F)F)c3)CC2)n1 (centres unmarked) [Example 121, 2-(3-(5-amino-6-(4-(3-(trifluoromethyl)phenyl)piperazin-1-yl)pyrazin-2-yl)-4-methylphenyl)-3,3,3-trifluoro-2-hydroxypropanamide trifluoroacetate]				IC50 [2, 4]: 100 to 500 nM; IC50 [3, 9]: < 100 nM
Cc1ccc(C(O)(C(N)=O)C(F)(F)F)cc1-c1cnc(N)c(N2CCN(c3ccccc3C#N)CC2)n1 (centres unmarked) [Example 122, 2-(3-(5-amino-6-(4-(2-cyanophcnyl)piperazin-1-yl)pyrazin-2-yl)-4-methylphenyl)-3,3,3-trifluoro-2-hydroxypropanamide trifluoroacetate]				IC50 [2, 4]: < 100 nM; IC50 [3, 9]: < 100 nM
Cc1ccc(C(O)(C(N)=O)C(F)(F)F)cc1-c1cnc(N)c(N2CCN3C(=O)CCC3C2)n1 (centres unmarked) [Example 126, 2-(3-(5-amino-6-(6-oxohexahydropyrrolo[1,2-a]pyrazin-2(1H)-yl)pyrazin-2-yl)-4-methylphenyl)-3,3,3-trifluoro-2-hydroxypropanamide trifluoroacetate]				IC50 [2, 4]: < 100 nM; IC50 [3, 9]: < 100 nM
Cc1ccc(C(O)(C(N)=O)C(F)(F)F)cc1-c1cnc(N)c(N2CCN(C(=O)c3ccco3)CC2)n1 (centres unmarked) [Example 127, 2-(3-(5-amino-6-(4-(furan-2-carbonyl)piperazin-1-yl)pyrazin-2-yl)-4-methylphenyl)-3,3,3-trifluoro-2-hydroxypropanamide trifluoroacetate]				IC50 [2]: < 100 nM; IC50 [3]: < 100 nM
Cc1ccc(C(O)(C(N)=O)C(F)(F)F)cc1-c1cnc(N)c(N2CCN(c3nccnc3C#N)CC2)n1 (centres unmarked) [Example 128, 2-(3-(5-amino-6-(4-(3-cyanopyrazin-2-yl)piperazin-1-yl)pyrazin-2-yl)-4-methylphenyl)-3,3,3-trifluoro-2-hydroxypropanamide trifluoroacetate]				IC50 [2, 4]: < 100 nM; IC50 [3, 9]: < 100 nM
